Consider 20 compounds from patent publication US20060093617A1, “Peptides for inducing a CTL and/or HTL response to hepatitis C virus” (Innogenetics, N.V., priority 2004, published 2006).

Where a SMILES comes first, the peptide text is derived from it.

One assay concerns the target T1, HLA-Cw06 (Homo sapiens, UniProt P10321, A176E/A330V/C350S/L171W/L180W/L218V/M285V/M309V/M331V/N104K/P208H/Q277E/Q291P/R121W/R243W/S101N/S123Y/S297R/T329A/T363A/V319A/V328M).
T1 construct: endogenous in cells
In words: HLA class I competition cell-based binding assay.

For a further assay, the target named is HLA-A02 (Homo sapiens, UniProt P04439, D140Y/D185E/D98H/E176V/E277Q/G131W/G231S/I119V/I121R/I166T/I218V/L300P/L318F/N151K/N90K/P208A/P217A/Q86G/Q94H/R138H/R169H/T345S). In words: Competition binding assay using soluble HLA class I.
A further assay has as its target T2, B*0702 (Homo sapiens, UniProt P01889).
T2 construct: endogenous in cells
The assay is described as above. Particulars: for Ki: Ki (nM), HLA-B0702 section.

The next assay addresses T3, HLA-Cw07 (Homo sapiens, UniProt P10321).
T3 construct: endogenous in cells
In words: HLA class I competition cell-based binding assay.

A further assay has as its target T4, DRB1*0301 (Homo sapiens, UniProt P01903+P01911, A100K/A102G/A103R/A169T/F55Y/I96L/K41T/L162R/M171V/P40S/Q125H/Q178H/Q39Y/R42S/S66N/T106N/T262R/W38E/Y61H).
T4 construct: endogenous in cells; HLA-DR was extracted from cell lysates on an LB3.1 antibody column
Put plainly: Competition binding assay using soluble HLA class II.

In the case of `CC(C)C[C@H](NC(=O)[C@@H](NC(=O)[C@H](CCCNC(=N)N)NC(=O)[C@@H](NC(=O)CNC(=O)[C@H](Cc1c[nH]cn1)NC(=O)[C@H](C)NC(=O)[C@H](CC(C)C)NC(=O)[C@H](C)N)C(C)C)C(C)C)C(=O)O`, the values for the inhibitory constant (Ki) at HLA-Cw06, at HLA-A02 and on B*0702 were 3310 nM, 627 nM and 7950 nM, respectively. In the case of `CC[C@H](C)[C@H](NC(=O)[C@@H]1CCCN1C(=O)[C@@H](NC(=O)[C@H](C)NC(=O)[C@H](CCCCN)NC(=O)CNC(=O)[C@H](Cc1ccc(O)cc1)NC(=O)[C@@H](N)Cc1ccccc1)[C@@H](C)CC)C(=O)N[C@@H](CCC(=O)O)C(=O)N[C@H](C(=O)O)C(C)C`, the inhibition constant (Ki) is 5690 nM on HLA-Cw06 and 31 nM on HLA-Cw07. For the compound `CC[C@H](C)[C@H](NC(=O)[C@H](CC(N)=O)NC(=O)[C@H](CCC(N)=O)NC(=O)[C@@H](N)Cc1c[nH]cn1)C(=O)N[C@H](C(=O)N[C@@H](CC(=O)O)C(=O)N[C@H](C(=O)N[C@@H](CCC(N)=O)C(=O)N[C@@H](Cc1ccc(O)cc1)C(=O)O)C(C)C)C(C)C`, the Ki at HLA-Cw07 was determined as 14200 nM. As for `CC[C@H](C)[C@H](N)C(=O)N[C@@H](CCCNC(=N)N)C(=O)N[C@@H](CO)C(=O)N[C@@H](CC(C)C)C(=O)N[C@H](C(=O)N[C@@H](CCC(=O)O)C(=O)N[C@@H](CCCNC(=N)N)C(=O)N[C@@H](CC(C)C)C(=O)N[C@@H](Cc1ccc(O)cc1)C(=O)O)[C@@H](C)O`, the Ki came out at 318 nM at HLA-Cw06 and 25 nM at HLA-Cw07. `CC[C@H](C)[C@H](NC(=O)[C@H](Cc1ccc(O)cc1)NC(=O)[C@@H](N)CCCCN)C(=O)N[C@@H](CCSC)C(=O)N[C@@H](C)C(=O)N[C@@H](CS)C(=O)N[C@@H](CCSC)C(=O)N[C@@H](CO)C(=O)N[C@@H](C)C(=O)O` came in with a Ki on HLA-Cw07 of 7210 nM. Same read-out and setting: with `CC(C)C[C@H](NC(=O)[C@H](CC(C)C)NC(=O)[C@@H]1CCCN1C(=O)[C@@H](NC(=O)[C@@H]1CCCN1C(=O)CNC(=O)[C@H](Cc1c[nH]cn1)NC(=O)[C@@H](N)CC(C)C)[C@@H](C)O)C(=O)N[C@@H](Cc1ccc(O)cc1)C(=O)O` the figure was 31 nM. On the same count and under the same terms, with `CC[C@H](C)[C@H](NC(=O)[C@@H](N)CC(N)=O)C(=O)N[C@H](C(=O)N[C@@H](CC(=O)O)C(=O)N[C@H](C(=O)N[C@@H](CCC(N)=O)C(=O)N[C@@H](Cc1ccc(O)cc1)C(=O)N[C@@H](CC(C)C)C(=O)N[C@@H](Cc1ccc(O)cc1)C(=O)O)C(C)C)C(C)C` the figure was 56 nM. Compound `CC[C@H](C)[C@H](NC(=O)[C@@H]1CCCN1C(=O)[C@H](C)NC(=O)[C@H](CC(C)C)NC(=O)[C@H](CC(C)C)NC(=O)[C@@H](N)CCCNC(=N)N)C(=O)N[C@H](C(=O)N[C@@H](C)C(=O)N[C@@H](Cc1ccc(O)cc1)C(=O)O)[C@@H](C)O` had a Ki at HLA-Cw07 of 4820 nM. `CC(C)C[C@H](NC(=O)[C@H](Cc1ccccc1)NC(=O)[C@H](CCCCN)NC(=O)CNC(=O)[C@H](Cc1ccc(O)cc1)NC(=O)[C@@H](NC(=O)[C@H](CO)NC(=O)[C@H](Cc1ccc(O)cc1)NC(=O)[C@@H](N)[C@@H](C)O)[C@@H](C)O)C(=O)O`: the Ki is 4860 nM at HLA-Cw06 and 239 nM at HLA-Cw07. Regarding `CC(C)C[C@H](NC(=O)CNC(=O)[C@H](CCCNC(=N)N)NC(=O)[C@H](Cc1ccc(O)cc1)NC(=O)[C@H](Cc1ccc(O)cc1)NC(=O)[C@H](C)NC(=O)[C@@H](N)C(C)C)C(=O)N[C@@H](CC(=O)O)C(=O)N[C@H](C(=O)O)C(C)C`, the Ki at HLA-Cw06 was found to be 231 nM; on B*0702 it was 1420 nM. Take `CSCC[C@H](NC(=O)[C@H](CC(C)C)NC(=O)[C@H](C)NC(=O)[C@H](CC(=O)O)NC(=O)[C@@H](NC(=O)[C@H](C)NC(=O)[C@@H](NC(=O)[C@@H](NC(=O)[C@@H](NC(=O)[C@@H](N)C(C)C)C(C)C)C(C)C)C(C)C)[C@@H](C)O)C(=O)N[C@H](C(=O)NCC(=O)N[C@@H](Cc1ccc(O)cc1)C(=O)N[C@H](C(=O)NCC(=O)O)[C@@H](C)O)[C@@H](C)O`: the half-maximal inhibitory concentration (IC50) at DRB1*0301 turned out to be 93 nM. On B*0702, `CSCC[C@H](NC(=O)[C@H](Cc1ccc(O)cc1)NC(=O)[C@H](C)NC(=O)CNC(=O)[C@H](Cc1ccccc1)NC(=O)CNC(=O)[C@H](CC(C)C)NC(=O)[C@@H](NC(=O)[C@H](C)N)[C@@H](C)O)C(=O)O` (H-ATLGFGAYM-OH) returned an inhibition constant (Ki) of 13000 nM. `N=C(N)NCCC[C@H](NC(=O)[C@H](CCC(N)=O)NC(=O)[C@@H](N)CC(=O)O)C(=O)N1CCC[C@H]1C(=O)N[C@@H](Cc1ccc(O)cc1)C(=O)N[C@@H](CS)C(=O)N[C@@H](Cc1c[nH]c2ccccc12)C(=O)N[C@@H](Cc1c[nH]cn1)C(=O)N[C@@H](Cc1ccc(O)cc1)C(=O)O` (H-DQRPYCWHY-OH; N-terminus and C-terminus assumed) came in with a Ki on HLA-Cw07 of 710 nM. Compound `C[C@H](NC(=O)[C@H](CCC(=O)O)NC(=O)[C@@H]1CCCN1C(=O)[C@H](Cc1c[nH]cn1)NC(=O)[C@H](CCCCN)NC(=O)[C@H](CCCNC(=N)N)NC(=O)[C@@H](N)Cc1ccccc1)C(=O)N[C@H](C(=O)N[C@@H](Cc1ccc(O)cc1)C(=O)O)[C@@H](C)O` (H-FRKHPEATY-OH; N-terminus and C-terminus assumed) yielded a Ki at HLA-Cw07 of 0.2 nM. On to `CC[C@H](C)[C@H](NC(=O)[C@H](CC(C)C)NC(=O)[C@H](CCCNC(=N)N)NC(=O)[C@H](C)NC(=O)[C@@H]1CCCN1C(=O)[C@H](CCCCN)NC(=O)[C@H](CCCNC(=N)N)NC(=O)CN)C(=O)N[C@H](C(=O)N[C@@H](Cc1ccccc1)C(=O)O)C(C)C` (H-GRKPARLIVF-OH), for which the values for the Ki on HLA-Cw06 and on HLA-Cw07 were 8960 nM and 753 nM, respectively.

`CC(C)C[C@H](NC(=O)[C@H](C)NC(=O)CNC(=O)[C@H](C)NC(=O)[C@@H](NC(=O)CN)C(C)C)C(=O)N[C@H](C(=O)N[C@@H](C)C(=O)N[C@@H](Cc1ccccc1)C(=O)O)C(C)C` (H-GVAGALVAF-OH; N-terminus and C-terminus assumed): at HLA-Cw07, the affinity, expressed as Ki, was 6160 nM. Same read-out and setting: with `CSCC[C@H](NC(=O)CNC(=O)[C@H](CCC(=O)O)NC(=O)[C@H](CC(N)=O)NC(=O)CNC(=O)[C@H](Cc1ccc(O)cc1)NC(=O)[C@@H](N)CC(C)C)C(=O)NCC(=O)N[C@@H](Cc1c[nH]c2ccccc12)C(=O)N[C@@H](C)C(=O)O` (H-LYGNEGMGWA-OH; N-terminus and C-terminus assumed) the figure was 5110 nM. As to `CSCC[C@H](NC(=O)CNC(=O)[C@H](CO)NC(=O)[C@@H]1CCCN1C(=O)[C@H](CCCNC(=N)N)NC(=O)[C@H](CCC(=O)O)NC(=O)CNC(=O)[C@@H]1CCCN1C(=O)[C@@H](N)[C@@H](C)O)C(=O)O` (H-TPGERPSGM-OH), at B*0702, the IC50 came out at 199 nM and affinity was put at a Ki of 199 nM. Regarding `CC(C)C[C@H](NC(=O)[C@@H](NC(=O)CNC(=O)[C@H](CO)NC(=O)[C@H](C)NC(=O)[C@H](CCCNC(=N)N)NC(=O)[C@H](CS)NC(=O)[C@H](CCCNC(=N)N)NC(=O)[C@H](CCCNC(=N)N)NC(=O)[C@@H](N)Cc1ccc(O)cc1)C(C)C)C(=O)O` (H-YRRCRASGVL-OH), at HLA-Cw07, the Ki amounted to 83 nM. Still for that read-out and setting: with `CC[C@H](C)[C@H](NC(=O)[C@@H](NC(=O)[C@H](CO)NC(=O)[C@@H](NC(=O)[C@H](CC(=O)O)NC(=O)[C@H](CC(C)C)NC(=O)CNC(=O)[C@H](CCCNC(=N)N)NC(=O)[C@H](Cc1ccc(O)cc1)NC(=O)[C@@H](N)Cc1ccc(O)cc1)C(C)C)C(C)C)C(=O)O` (H-YYRGLDVSVI-OH) the figure was 87 nM.

The Ki is a dissociation constant, usually derived from enzyme kinetics or from competition with a known ligand. Read a low Ki as a stronger hold on the target. Broadly, the IC50 is the concentration needed to halve the response being measured. Read a low IC50 as greater potency in that assay.
